Experimental data: patent US11286256B2, “Bicyclic inhibitors of histone deacetylase” (Alkermes, Inc., priority 2017, dated 2022)
Like-named read-outs stand apart in the source and are kept apart here.

Columns and labels:
[1] = target: T1, HDAC2 (Homo sapiens, UniProt Q92769); test: HDAC2 recombinant enzymatic assay; type: biochemical; parameters: purchased BPS Bioscience; conditions: 5 h pre-incubation, 5 nM enzyme; read-out: HDAC recombinant enzymatic IC50 HDAC2
Procedure: (§1) The following describes an assay protocol for measuring the deacetylation of a peptide substrate by the enzymes HDAC2 or HDAC1.
(§2) All recombinant human HDACs were purchased from BPS Bioscience. The substrate, FAM-TSRHK(AC)KL-CONH, was synthesized at NanoSyn. Final assay reactions contained 100 mM HEPES (pH 7.5), 50 mM KCl, 0.1% BSA, 0.01% Triton X-100, 1% DMSO, 1 uM substrate and 5 nM HDAC enzyme. Enzyme and compounds were pre-incubated at 25° C. for 5 hours and reactions were initiated by addition of substrate. 10 uL reactions were incubated for 17 hours at 25° C. and terminated by the addition of 40 uL of buffer containing 100 mM HEPES (pH 7.5), 0.1% BSA, 0.01% Triton X-100 and 0.05% SDS. Substrate and product peptides present in each sample were separated electrophoretically using the LabChip 3000 capillary electrophoresis instrument. Change in the relative fluorescence intensity of the substrate and product peaks reflects enzyme activity. Reaction progress was determined as the product to sum ratio (PSR):P/(S+P), where P is the peak height of the product peptide and S is the peak height of the substrate peptide. Reactions were performed in duplicate at 12 concentrations, (3× serial dilutions starting at 30 uM). IC50 values were calculated using a 4 Parameter Logistic Model.

[2] = target: T2, CYP3A4 (Homo sapiens, UniProt P08684); test: CYP inhibition assay in human liver microsomes (3A4, midazolam); type: in vitro ADME; conditions: for inhibition at 5 min, 10 µM: probe midazolam, human liver microsomes, midazolam
T2 construct: Human liver microsomes were obtained from BD Gentest; tissue BD Gentest; host or cells: human liver microsomes
T2 sequence (P08684 whole entry): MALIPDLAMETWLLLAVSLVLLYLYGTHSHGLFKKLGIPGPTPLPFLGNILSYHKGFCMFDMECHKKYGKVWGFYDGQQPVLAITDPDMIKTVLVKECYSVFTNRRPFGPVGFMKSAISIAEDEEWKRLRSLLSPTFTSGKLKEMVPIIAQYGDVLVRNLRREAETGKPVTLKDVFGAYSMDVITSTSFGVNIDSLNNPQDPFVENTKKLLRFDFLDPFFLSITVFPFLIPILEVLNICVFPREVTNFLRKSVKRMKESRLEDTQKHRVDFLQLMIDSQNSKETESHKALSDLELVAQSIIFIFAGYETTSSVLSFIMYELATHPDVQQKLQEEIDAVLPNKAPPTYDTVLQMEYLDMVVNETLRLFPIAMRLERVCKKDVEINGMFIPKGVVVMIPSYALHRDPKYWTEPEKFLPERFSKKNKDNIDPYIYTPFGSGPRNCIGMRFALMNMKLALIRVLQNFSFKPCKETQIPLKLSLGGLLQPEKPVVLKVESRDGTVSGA
Procedure: Compounds were tested to evaluate their inhibitory potential on CYP2D6 and CYP3A4 (midazolam) using human liver microsomes. Human liver microsomes were obtained from BD Gentest, and each compound was run in duplicate.
The test compounds and reference inhibitors (quinidine for 2D6, ketoconazole for 3A4) were plated in a 96-well plate by transferring 8 μL of 10 mM stock solutions of compound in DMSO to 12 μL of acetonitrile. Individual inhibitor spiking solutions were prepared for CYP2D6 and CYP3A4 (8 μL of DMSO stock added to 12 μL of acetonitrile). Next added 400 μL of 0.2 mg/mL HLM to the assay wells and then added 2 μL of 400× test compound into the designated wells on ice. Next, added 200 μL of 0.2 mg/mL HLM to the assay wells and then added 1 μL of reference inhibitor solutions into the designated wells. The following solutions were added (in duplicate) to a 96-well assay plate on ice: The test compounds and reference inhibitors (quinidine for 2D6, ketoconazole for 3A4) were tested using the following experimental procedure:
10. Incubate the assay plate at 37° C. 5 min for 3A4, 10 min for 2D6.
11. Stop the reaction by adding 120 μL of ACN containing Internal Standard. For CYP3A4, the internal standard is 1′OH-midazolam-D4 (10 μM solution diluted to a final concentration of 0.1 μM by adding 100 μL internal standard stock to 10 mL ACN). For CYP2D6, the internal standard is 1-OH-Bufuralol-maleate-[D9] (49 μM solution diluted to a final concentration of 0.1 μM by adding 20 μL internal standard stock to 10 mL ACN).
The assessment on CYP isoform inhibition is as follows based on the assay results: if percentage of CYP inhibition is higher than 50%, indicates potent inhibition; if percentage of CYP inhibition is between 30-50%, indicates […]; if percentage of CYP inhibition is less than 30%, indicates slight or no inhibition. If the percentage of CYP inhibition is less than −30%, this indicates the compound may have some kind of activation of this isoform.

[3] = target: T1, HDAC2; test: HDAC2 enzymatic inhibition assay in SY5Y cell lysate with HDAC-Glo2 substrate; type: cell-based; parameters: host or cells: SH-SY5Y; conditions: SH-SY5Y cells, 5 h compound incubation, HDAC-Glo 2 reagent
Procedure: HDAC2 Enzymatic Inhibition Assay in SY5Y Cell Lysate with HDAC-Glo2 Substrate
SH-SY5Y cells (Sigma) were cultured in Eagle's Modified Essential Medium supplemented with 10% fetal bovine serum and pen/strep. Twenty-four hours prior to compound dosing 20 uL of cells were plated in white 384 well plates at a density of 1,500 cells/well. Compounds were serially diluted in neat DMSO and then diluted 1:100 v/v into media without FBS and mixed. Media was removed from the plated cells and the diluted compounds in serum free media (1% v/v final DMSO) were added and incubated at 37.0 for five hours. Ten uL of HDAC-Glo 2 reagent with 0.1% Triton X-100 was then added, the plate was mixed and allowed to develop at room temperature for 100 minutes. Plates were then read with a Spectramax LMax luminometer employing a 0.4 s integration time. Dose response curves were constructed with normalized data where CI-994 at 100 uM was defined as 100% inhibition and DMSO alone as 0% inhibition.

[4] = target: T3, HDAC1 (Homo sapiens, UniProt Q13547); test: HDAC1 recombinant enzymatic assay; type: biochemical; conditions: 5 h pre-incubation, 5 nM enzyme; read-out: HDAC recombinant enzymatic IC50 HDAC1
T3 construct: purchased BPS Bioscience
T3 sequence (Q13547 whole entry): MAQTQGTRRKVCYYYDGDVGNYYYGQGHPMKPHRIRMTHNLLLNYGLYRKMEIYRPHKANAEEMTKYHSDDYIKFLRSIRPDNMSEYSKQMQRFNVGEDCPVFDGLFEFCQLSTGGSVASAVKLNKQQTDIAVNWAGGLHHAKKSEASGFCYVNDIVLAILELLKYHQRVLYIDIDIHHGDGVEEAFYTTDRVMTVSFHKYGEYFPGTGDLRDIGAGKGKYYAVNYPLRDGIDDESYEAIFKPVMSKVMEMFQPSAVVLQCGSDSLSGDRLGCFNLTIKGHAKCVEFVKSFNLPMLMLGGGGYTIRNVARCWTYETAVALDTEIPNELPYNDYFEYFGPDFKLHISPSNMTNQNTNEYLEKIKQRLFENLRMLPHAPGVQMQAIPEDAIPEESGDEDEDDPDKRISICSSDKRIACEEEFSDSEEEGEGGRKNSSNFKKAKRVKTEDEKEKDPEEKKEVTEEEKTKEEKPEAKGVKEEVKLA
Procedure: as §1, §2

[5] = Brain and plasma exposure following IV and PO administration to mice; type: in vivo; conditions: for Mouse IV-PO (1/10 mpk): F: IV 1 mpk / PO 10 mpk; for clearance / half-life: plasma
Procedure: Compounds were dosed in mice at either 10 mg/kg or 30 mg/kg PO, and were dosed at 1 mg/kg IV. Three animals for collection at each time point for plasma via bleeding at 0.25, 0.5, 1, 4, 12 and 24 h. Terminal bleeding for plasma and sampling for brain at 0.25, 0.5, 1, 4, 12 and 24 h (also three animals per brain exposure time point group). Total of six time points for plasma and six time points for brain.
Plasma: The animal was restrained manually at the designated time points, approximately 150 μL blood/time point was collected into K2EDTA tube via retro orbital puncture or cardiac puncture under anesthesia with Isoflurane. The blood sample was centrifuged (2000 g, 4° C., 5 min) to generate plasma within 30 min after bleeding.
Brain: At the designated time points, a mid-line incision was made in the animals scalp and the skin was retracted. Using small bone cutters and rongeurs, removed the skull overlying the brain. Removed the brain using a spatula and rinse with cold saline. Placed the brain in screw-top tubes, and then stored the tubes under −70° C. until analysis.

T1 sequence (Q92769 whole entry): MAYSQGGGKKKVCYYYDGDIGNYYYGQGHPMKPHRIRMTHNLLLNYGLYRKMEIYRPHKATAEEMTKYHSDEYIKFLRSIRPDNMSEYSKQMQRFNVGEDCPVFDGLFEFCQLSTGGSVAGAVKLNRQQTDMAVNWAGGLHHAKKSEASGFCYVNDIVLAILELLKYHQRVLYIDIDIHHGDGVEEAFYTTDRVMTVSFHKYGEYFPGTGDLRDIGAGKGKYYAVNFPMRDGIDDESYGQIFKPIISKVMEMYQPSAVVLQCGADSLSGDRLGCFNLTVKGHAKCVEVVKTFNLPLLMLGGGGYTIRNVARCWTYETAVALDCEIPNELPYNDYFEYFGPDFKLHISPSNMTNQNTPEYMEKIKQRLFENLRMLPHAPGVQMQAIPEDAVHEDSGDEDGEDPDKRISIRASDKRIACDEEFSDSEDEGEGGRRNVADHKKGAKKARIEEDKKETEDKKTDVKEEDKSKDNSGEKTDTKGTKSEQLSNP

IC50 [1] [nM] | inhibition at 5 min, 10 µM [2] [%] | IC50 [3] [nM] | IC50 [4] [nM] | SMILES | also measured
142 | -22 | 369 | 27 | Nc1ccc(-c2ccc(F)cc2)cc1NC(=O)N1Cc2nccnc2C1 [Comparator A] | –
475 | 1.5 | 485 | 119 | Nc1ccc(-c2ccc(F)cc2)nc1NC(=O)N1Cc2nccnc2C1 [Comparator B] | –
301 | 1 | 279 | 95 | Nc1ccc(-c2cccs2)nc1NC(=O)N1Cc2nccnc2C1 [Comparator C] | –
627 | 2 | 331 | 239 | Nc1ccc(-c2ccc(F)cc2)nc1NC(=O)N1Cc2cncnc2C1 [Comparator D] | Projected Brain Cmax @ 10 mpk (*scaled for comparison) ([5]; mouse, brain, scaled to 10 mpk for comparison): 158* ng/g
511 | -17 | 278 | 142 | Nc1ccc(-c2cccs2)nc1NC(=O)N1Cc2cncnc2C1 [Comparator E] | Mouse IV-PO (1/10 mpk): F [5]: 49%; Mouse PO (10 mpk): Brain Cmax ([5]; brain): 100 ng/g; Mouse PO (10 mpk): Free brain Cmax ([5]; free brain): 35 ng/g
510 | 27 | 777 | 326 | COCc1cc2c(cn1)CN(C(=O)Nc1nc(-c3ccc(F)cc3F)ccc1N)C2 [Compound 1] | Projected Brain Cmax @ 10 mpk ([5]; mouse, 10 mpk, brain): 2460 ng/g; Projected free brain @ 10 mpk ([5]; mouse, 10 mpk, free brain): 1.04 µM; clearance ([5]; 1 mg/kg, mouse, IV, read-out: IV PK Cl (converted)): 11.4 mL/min/kg; half-life ([5]; 1 mg/kg, mouse, IV, read-out: IV PK T ½ (converted)): 2.13 h; half-life ([5]; 10 mpk, mouse, PO, read-out: PK T ½ PO (converted)): 1.97 h
– | 1 | 577 | 133 | Cc1ncc2c(n1)CN(C(=O)Nc1nc(-c3cccs3)ccc1N)C2 [Compound 2] | Mouse IV-PO (1/10 mpk): F [5]: 100%; Mouse PO (10 mpk): Brain Cmax ([5]; brain): 583 ng/g; Mouse PO (10 mpk): Free brain Cmax ([5]; free brain): 173 ng/g; higher brain exposure over the unsubstituted pyrimidine analog ([5]; mouse, relative to Comparator E): > 5 fold; clearance ([5]; 1 mg/kg, mouse, IV 1 mpk, read-out: Mouse IV (1 mpk): Cl (converted)): 69.7 mL/min/kg; half-life ([5]; 1 mg/kg, mouse, IV 1 mpk, read-out: Mouse IV (1 mpk): T1/2 (converted)): 0.839 h; half-life ([5]; 10 mpk, mouse, PO, read-out: Mouse PO (1/10 mpk): T1/2 (converted)): 1.05 h; inhibition of CYP3A4 (in words) ([2]; 10 μM): no significant inhibition
